Measurements from patent US8969516B2, “Method of hydrolysis of peptide bond” (priority 2006, dated 2015).

Test: MALDI-TOF screening of Ni^2+ dependent hydrolysis in a combinatorial peptide library
Type: physicochemical
Details: CH3CO-Gly-Ala-Ser-X-His-Z-Lys-Phe-Leu-NH2 library, Ni^2+ 2 mM, pH 8.2, 10 mM Tris, score=24/tm
Summary of the method: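 Peptide sublibraries CH3CO-Gly-Ala-Ser/Thr-X-His-Z-Lys-Phe-Leu-NH2 (1 mM total) incubated with 2 mM Ni^2+ in 10 mM Tris pH 8.2 at 37 °C and 45 °C. Hydrolysis products, plus loss of substrate signals, detected by MALDI-TOF at 2, 4, 6 and 8 h; residues X and Z scored and ranked.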

For Ac-GASPHIKFL-NH2 [SPHI], the “hydrolysis score from MALDI-TOF screening” value (from here on “hydrolysis score”) (37° C.) was 0 (a score of 0 if no trace of the product of hydrolysis was seen after 8 hours of incubation) and the “hydrolysis score” value (45° C.) was 0 (a score of 0 if no trace of the product of hydrolysis was seen after 8 hours of incubation).
In the case of Ac-GASPHKKFL-NH2 [SPHK], the “hydrolysis score” value (37° C.) is reported as 0 (a score of 0 if no trace of the product of hydrolysis was seen after 8 hours of incubation) and the “hydrolysis score” value (45° C.) is reported as 0 (a score of 0 if no trace of the product of hydrolysis was seen after 8 hours of incubation).
In the case of Ac-GASPHLKFL-NH2 [SPHL], the “hydrolysis score” value (37° C.) is reported as 0 (a score of 0 if no trace of the product of hydrolysis was seen after 8 hours of incubation) and the “hydrolysis score” value (45° C.) is reported as 0 (a score of 0 if no trace of the product of hydrolysis was seen after 8 hours of incubation).
With Ac-GASPHMKFL-NH2 [SPHM] the “hydrolysis score” value (37° C.) was 0 (a score of 0 if no trace of the product of hydrolysis was seen after 8 hours of incubation) and the “hydrolysis score” value (45° C.) was 0 (a score of 0 if no trace of the product of hydrolysis was seen after 8 hours of incubation).
For Ac-GASPHNKFL-NH2 [SPHN], the “hydrolysis score” value (37° C.) was 0 (a score of 0 if no trace of the product of hydrolysis was seen after 8 hours of incubation) and the “hydrolysis score” value (45° C.) was 0 (a score of 0 if no trace of the product of hydrolysis was seen after 8 hours of incubation).
For Ac-GASPHPKFL-NH2 [SPHP], the “hydrolysis score” value (37° C.) was 0 (a score of 0 if no trace of the product of hydrolysis was seen after 8 hours of incubation) and the “hydrolysis score” value (45° C.) was 0 (a score of 0 if no trace of the product of hydrolysis was seen after 8 hours of incubation).
With Ac-GASPHQKFL-NH2 [SPHQ] the “hydrolysis score” value (37° C.) was 0 (a score of 0 if no trace of the product of hydrolysis was seen after 8 hours of incubation) and the “hydrolysis score” value (45° C.) was 0 (a score of 0 if no trace of the product of hydrolysis was seen after 8 hours of incubation).
For Ac-GASPHRKFL-NH2 [SPHR], the “hydrolysis score” value (37° C.) was 0 (a score of 0 if no trace of the product of hydrolysis was seen after 8 hours of incubation) and the “hydrolysis score” value (45° C.) was 0 (a score of 0 if no trace of the product of hydrolysis was seen after 8 hours of incubation).
With Ac-GASPHSKFL-NH2 [SPHS] the “hydrolysis score” value (37° C.) was 0 (a score of 0 if no trace of the product of hydrolysis was seen after 8 hours of incubation) and the “hydrolysis score” value (45° C.) was 0 (a score of 0 if no trace of the product of hydrolysis was seen after 8 hours of incubation).
For Ac-GASPHTKFL-NH2 [SPHT], the “hydrolysis score” value (37° C.) was 0 (a score of 0 if no trace of the product of hydrolysis was seen after 8 hours of incubation) and the “hydrolysis score” value (45° C.) was 0 (a score of 0 if no trace of the product of hydrolysis was seen after 8 hours of incubation).
In the case of Ac-GASPHVKFL-NH2 [SPHV], the “hydrolysis score” value (37° C.) is reported as 0 (a score of 0 if no trace of the product of hydrolysis was seen after 8 hours of incubation) and the “hydrolysis score” value (45° C.) is reported as 0 (a score of 0 if no trace of the product of hydrolysis was seen after 8 hours of incubation).
With Ac-GASPHWKFL-NH2 [SPHW] the “hydrolysis score” value (37° C.) was 0 (a score of 0 if no trace of the product of hydrolysis was seen after 8 hours of incubation) and the “hydrolysis score” value (45° C.) was 0 (a score of 0 if no trace of the product of hydrolysis was seen after 8 hours of incubation).
For Ac-GASPHYKFL-NH2 [SPHY], the “hydrolysis score” value (37° C.) was 0 (a score of 0 if no trace of the product of hydrolysis was seen after 8 hours of incubation) and the “hydrolysis score” value (45° C.) was 0 (a score of 0 if no trace of the product of hydrolysis was seen after 8 hours of incubation).
With Ac-GASQHAKFL-NH2 [SQHA] the “hydrolysis score” value (37° C.) was 0 (a score of 0 if no trace of the product of hydrolysis was seen after 8 hours of incubation) and the “hydrolysis score” value (45° C.) was 3 (a score of 3 for detection at 8 hours).
For Ac-GASQHDKFL-NH2 [SQHD], the “hydrolysis score” value (37° C.) was 0 (a score of 0 if no trace of the product of hydrolysis was seen after 8 hours of incubation) and the “hydrolysis score” value (45° C.) was 0 (a score of 0 if no trace of the product of hydrolysis was seen after 8 hours of incubation).
With Ac-GASQHEKFL-NH2 [SQHE] the “hydrolysis score” value (37° C.) was 0 (a score of 0 if no trace of the product of hydrolysis was seen after 8 hours of incubation) and the “hydrolysis score” value (45° C.) was 0 (a score of 0 if no trace of the product of hydrolysis was seen after 8 hours of incubation).
In the case of Ac-GASQHFKFL-NH2 [SQHF], the “hydrolysis score” value (37° C.) is reported as 3 (a score of 3 for detection at 8 hours) and the “hydrolysis score” value (45° C.) is reported as 4 (a score of 4 for detection at 6 hours).
In the case of Ac-GASQHGKFL-NH2 [SQHG], the “hydrolysis score” value (37° C.) is reported as 0 (a score of 0 if no trace of the product of hydrolysis was seen after 8 hours of incubation) and the “hydrolysis score” value (45° C.) is reported as 0 (a score of 0 if no trace of the product of hydrolysis was seen after 8 hours of incubation).
In the case of Ac-GASQHHKFL-NH2 [SQHH], the “hydrolysis score” value (37° C.) is reported as 0 (a score of 0 if no trace of the product of hydrolysis was seen after 8 hours of incubation) and the “hydrolysis score” value (45° C.) is reported as 0 (a score of 0 if no trace of the product of hydrolysis was seen after 8 hours of incubation).
With Ac-GASQHIKFL-NH2 [SQHI] the “hydrolysis score” value (37° C.) was 6 (a score of 6 for detection at 4 hours) and the “hydrolysis score” value (45° C.) was 6 (a score of 6 for detection at 4 hours).
For Ac-GASQHKKFL-NH2 [SQHK], the “hydrolysis score” value (37° C.) was 4 (a score of 4 for detection at 6 hours) and the “hydrolysis score” value (45° C.) was 6 (a score of 6 for detection at 4 hours).
In the case of Ac-GASQHLKFL-NH2 [SQHL], the “hydrolysis score” value (37° C.) is reported as 6 (a score of 6 for detection at 4 hours) and the “hydrolysis score” value (45° C.) is reported as 6 (a score of 6 for detection at 4 hours).
For Ac-GASQHMKFL-NH2 [SQHM], the “hydrolysis score” value (37° C.) was 0 (a score of 0 if no trace of the product of hydrolysis was seen after 8 hours of incubation) and the “hydrolysis score” value (45° C.) was 3 (a score of 3 for detection at 8 hours).
For Ac-GASQHNKFL-NH2 [SQHN], the “hydrolysis score” value (37° C.) was 0 (a score of 0 if no trace of the product of hydrolysis was seen after 8 hours of incubation) and the “hydrolysis score” value (45° C.) was 0 (a score of 0 if no trace of the product of hydrolysis was seen after 8 hours of incubation).
With Ac-GASQHPKFL-NH2 [SQHP] the “hydrolysis score” value (37° C.) was 0 (a score of 0 if no trace of the product of hydrolysis was seen after 8 hours of incubation) and the “hydrolysis score” value (45° C.) was 0 (a score of 0 if no trace of the product of hydrolysis was seen after 8 hours of incubation).
For Ac-GASQHQKFL-NH2 [SQHQ], the “hydrolysis score” value (37° C.) was 0 (a score of 0 if no trace of the product of hydrolysis was seen after 8 hours of incubation) and the “hydrolysis score” value (45° C.) was 0 (a score of 0 if no trace of the product of hydrolysis was seen after 8 hours of incubation).
In the case of Ac-GASQHRKFL-NH2 [SQHR], the “hydrolysis score” value (37° C.) is reported as 6 (a score of 6 for detection at 4 hours) and the “hydrolysis score” value (45° C.) is reported as 6 (a score of 6 for detection at 4 hours).
With Ac-GASQHSKFL-NH2 [SQHS] the “hydrolysis score” value (37° C.) was 0 (a score of 0 if no trace of the product of hydrolysis was seen after 8 hours of incubation) and the “hydrolysis score” value (45° C.) was 0 (a score of 0 if no trace of the product of hydrolysis was seen after 8 hours of incubation).
In the case of Ac-GASQHTKFL-NH2 [SQHT], the “hydrolysis score” value (37° C.) is reported as 0 (a score of 0 if no trace of the product of hydrolysis was seen after 8 hours of incubation) and the “hydrolysis score” value (45° C.) is reported as 0 (a score of 0 if no trace of the product of hydrolysis was seen after 8 hours of incubation).
In the case of Ac-GASQHVKFL-NH2 [SQHV], the “hydrolysis score” value (37° C.) is reported as 0 (a score of 0 if no trace of the product of hydrolysis was seen after 8 hours of incubation) and the “hydrolysis score” value (45° C.) is reported as 4 (a score of 4 for detection at 6 hours).
In the case of Ac-GASQHWKFL-NH2 [SQHW], the “hydrolysis score” value (37° C.) is reported as 6 (a score of 6 for detection at 4 hours) and the “hydrolysis score” value (45° C.) is reported as 6 (a score of 6 for detection at 4 hours).
For Ac-GASQHYKFL-NH2 [SQHY], the “hydrolysis score” value (37° C.) was 3 (a score of 3 for detection at 8 hours) and the “hydrolysis score” value (45° C.) was 4 (a score of 4 for detection at 6 hours).
With Ac-GASRHAKFL-NH2 [SRHA] the “hydrolysis score” value (37° C.) was 3 (a score of 3 for detection at 8 hours) and the “hydrolysis score” value (45° C.) was 6 (a score of 6 for detection at 4 hours).
In the case of Ac-GASRHDKFL-NH2 [SRHD], the “hydrolysis score” value (37° C.) is reported as 0 (a score of 0 if no trace of the product of hydrolysis was seen after 8 hours of incubation) and the “hydrolysis score” value (45° C.) is reported as 0 (a score of 0 if no trace of the product of hydrolysis was seen after 8 hours of incubation).
With Ac-GASRHEKFL-NH2 [SRHE] the “hydrolysis score” value (37° C.) was 0 (a score of 0 if no trace of the product of hydrolysis was seen after 8 hours of incubation) and the “hydrolysis score” value (45° C.) was 3 (a score of 3 for detection at 8 hours).
With Ac-GASRHFKFL-NH2 [SRHF] the “hydrolysis score” value (37° C.) was 4 (a score of 4 for detection at 6 hours) and the “hydrolysis score” value (45° C.) was 4 (a score of 4 for detection at 6 hours).
In the case of Ac-GASRHGKFL-NH2 [SRHG], the “hydrolysis score” value (37° C.) is reported as 3 (a score of 3 for detection at 8 hours) and the “hydrolysis score” value (45° C.) is reported as 6 (a score of 6 for detection at 4 hours).
With Ac-GASRHHKFL-NH2 [SRHH] the “hydrolysis score” value (37° C.) was 4 (a score of 4 for detection at 6 hours) and the “hydrolysis score” value (45° C.) was 4 (a score of 4 for detection at 6 hours).
In the case of Ac-GASRHIKFL-NH2 [SRHI], the “hydrolysis score” value (37° C.) is reported as 12 (a score of 12, if it was seen to be partially hydrolysed at 2 hours) and the “hydrolysis score” value (45° C.) is reported as 12 (a score of 12, if it was seen to be partially hydrolysed at 2 hours).
With Ac-GASRHKKFL-NH2 [SRHK] the “hydrolysis score” value (37° C.) was 6 (a score of 6 for detection at 4 hours) and the “hydrolysis score” value (45° C.) was 12 (a score of 12, if it was seen to be partially hydrolysed at 2 hours).
For Ac-GASRHLKFL-NH2 [SRHL], the “hydrolysis score” value (37° C.) was 12 (a score of 12, if it was seen to be partially hydrolysed at 2 hours) and the “hydrolysis score” value (45° C.) was 12 (a score of 12, if it was seen to be partially hydrolysed at 2 hours).
